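How tested: cells in 96-well plates exposed to compound for 48 hours at five concentrations. GI50 marks 50% less growth.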 Activity calls are given as the source filed them. Rule as the data show it: active = GI50 up to about 1.1 µM and inactive = higher.
Experiments:
Experiment in all cases: NCI-60 cell line screen, 48 h
UACC-257 = system: UACC-257
OVCAR-8 = system: OVCAR-8
SN12C = system: SN12C
MOLT-4 = system: MOLT-4
SK-MEL-2 = system: SK-MEL-2
DMS-114 = system: DMS-114
K562 = system: K562
A549 = system: A549
M19-MEL = system: M19-MEL
NCI-H23 = system: NCI-H23
CAKI-1 = system: CAKI-1
COLO 205 = system: COLO 205
XF498 = system: XF498
HCT-15 = system: HCT-15
HOP-92 = system: HOP-92
OVCAR-5 = system: OVCAR-5
SNB-75 = system: SNB-75
SK-OV-3 = system: SK-OV-3
OVCAR-4 = system: OVCAR-4
EKVX = system: EKVX
LOX IMVI = system: LOX IMVI
A498 = system: A498
RPMI-8226 = system: RPMI-8226
OVCAR-3 = system: OVCAR-3
RXF 393 = system: RXF 393
SK-MEL-5 = system: SK-MEL-5
DLD-1 = system: DLD-1
NCI/ADR-RES = system: NCI/ADR-RES
HOP-62 = system: HOP-62
U-251 = system: U-251
NCI-H460 = system: NCI-H460
UO-31 = system: UO-31
UACC-62 = system: UACC-62
SW-620 = system: SW-620
HT-29 = system: HT-29
DMS-273 = system: DMS-273
MCF7 = system: MCF7
SNB-19 = system: SNB-19
CCRF-CEM = system: CCRF-CEM
NCI-H226 = system: NCI-H226
SF-295 = system: SF-295
NCI-H522 = system: NCI-H522
SNB-78 = system: SNB-78
Malme-3M = system: Malme-3M
IGROV-1 = system: IGROV-1
HOP-18 = system: HOP-18
KM-20L2 = system: KM-20L2
SK-MEL-28 = system: SK-MEL-28
SF-539 = system: SF-539
SF-268 = system: SF-268
KM12 = system: KM12
HCC 2998 = system: HCC 2998
HCT-116 = system: HCT-116
HL-60 = system: HL-60
LXFL 529 = system: LXFL 529
M14 = system: M14
TK-10 = system: TK-10
ACHN = system: ACHN
786-0 = system: 786-0

Measured: GI50

COc1cc2cc3c4cc(OC)c(OC)cc4cc[n+]3cc2cc1OC
> 100 µM: HCT-15
inactive: UACC-257 > 100 µM | OVCAR-8 > 100 µM | SN12C 12.4 µM | MOLT-4 > 75.5 µM | SK-MEL-2 > 100 µM | K562 > 100 µM | A549 > 100 µM | M19-MEL > 100 µM | NCI-H23 > 76.7 µM | CAKI-1 > 100 µM | COLO 205 78.2 µM | XF498 > 100 µM | HOP-92 > 100 µM | OVCAR-5 > 100 µM | SNB-75 > 89.3 µM | SK-OV-3 > 82.2 µM | OVCAR-4 > 100 µM | EKVX > 100 µM | LOX IMVI > 100 µM | A498 > 100 µM | RPMI-8226 > 100 µM | OVCAR-3 > 45.5 µM | RXF 393 46.6 µM | SK-MEL-5 > 100 µM | DLD-1 > 100 µM | NCI/ADR-RES > 100 µM | HOP-62 > 100 µM | U-251 9.46 µM | NCI-H460 > 100 µM | UO-31 > 100 µM | UACC-62 > 100 µM | SW-620 > 100 µM | HT-29 > 100 µM | DMS-273 > 100 µM | MCF7 > 31.6 µM | SNB-19 15.2 µM | CCRF-CEM > 100 µM | NCI-H226 71.4 µM | SF-295 > 100 µM | NCI-H522 16.4 µM | SNB-78 > 74.3 µM | Malme-3M > 100 µM | IGROV-1 > 100 µM | HOP-18 > 100 µM | KM-20L2 > 57.4 µM | SK-MEL-28 > 100 µM | SF-539 > 100 µM | KM12 > 100 µM | HCC 2998 > 30.6 µM | HCT-116 > 100 µM
active: DMS-114 1 µM | SF-268 0.435 µM

c1ccc(C(c2ccccc2)[P+](c2ccccc2)(c2ccccc2)c2ccccc2)cc1
inactive: CAKI-1 2.69 µM | EKVX 4.7 µM | A498 2.32 µM | RXF 393 2.24 µM | DLD-1 2.1 µM | NCI/ADR-RES 35.2 µM | SF-295 1.7 µM | SF-539 1.27 µM
active: UACC-257 0.348 µM | OVCAR-8 0.542 µM | HL-60 0.182 µM | SN12C 0.592 µM | MOLT-4 0.419 µM | SK-MEL-2 0.305 µM | DMS-114 0.324 µM | K562 0.427 µM | A549 0.422 µM | M19-MEL 0.397 µM | NCI-H23 0.45 µM | COLO 205 0.289 µM | XF498 0.214 µM | HOP-92 0.543 µM | OVCAR-5 0.933 µM | SNB-75 0.467 µM | SK-OV-3 0.596 µM | OVCAR-4 0.479 µM | LOX IMVI 0.265 µM | RPMI-8226 0.226 µM | OVCAR-3 0.336 µM | SK-MEL-5 0.37 µM | HOP-62 0.867 µM | U-251 0.431 µM | NCI-H460 0.456 µM | UO-31 0.951 µM | UACC-62 0.332 µM | SW-620 0.466 µM | HT-29 0.332 µM | DMS-273 0.349 µM | MCF7 0.449 µM | SNB-19 0.526 µM | CCRF-CEM 0.317 µM | NCI-H226 0.684 µM | NCI-H522 0.223 µM | SNB-78 0.612 µM | Malme-3M 0.726 µM | IGROV-1 0.394 µM | HOP-18 0.369 µM | KM-20L2 0.374 µM | SK-MEL-28 0.446 µM | SF-268 0.556 µM | KM12 0.241 µM | HCC 2998 0.365 µM | HCT-116 0.326 µM
4.62 µM: HCT-15

O=C1C(=O)N(c2ccc(Cl)cc2)C(=O)C(=O)C1c1nc2ccccc2s1
> 100 µM: HCT-15
inactive: UACC-257 > 100 µM | OVCAR-8 > 100 µM | SN12C > 100 µM | MOLT-4 21.9 µM | SK-MEL-2 > 100 µM | DMS-114 > 100 µM | LXFL 529 > 100 µM | K562 > 100 µM | M14 > 100 µM | M19-MEL > 100 µM | NCI-H23 > 100 µM | CAKI-1 > 100 µM | COLO 205 > 100 µM | XF498 > 100 µM | HOP-92 > 100 µM | OVCAR-5 > 100 µM | SNB-75 > 100 µM | SK-OV-3 > 100 µM | OVCAR-4 > 100 µM | TK-10 > 100 µM | EKVX > 100 µM | LOX IMVI > 100 µM | RPMI-8226 > 100 µM | OVCAR-3 > 100 µM | RXF 393 > 100 µM | SK-MEL-5 > 100 µM | HOP-62 42.7 µM | U-251 > 100 µM | NCI-H460 > 100 µM | UO-31 > 100 µM | UACC-62 > 100 µM | SW-620 > 100 µM | HT-29 > 100 µM | DMS-273 > 100 µM | SNB-19 > 100 µM | NCI-H226 > 100 µM | ACHN 89.3 µM | SF-295 > 100 µM | NCI-H522 > 100 µM | SNB-78 > 100 µM | Malme-3M > 100 µM | IGROV-1 71 µM | HOP-18 > 100 µM | 786-0 > 100 µM | KM-20L2 > 100 µM | SK-MEL-28 > 100 µM | SF-539 74.3 µM | SF-268 > 100 µM | KM12 > 100 µM | HCC 2998 > 100 µM | HCT-116 > 100 µM

Reference: ChEMBL document CHEMBL1201862, “PubChem BioAssay data set” (2004)
